# Laboratory results as given in PubChem BioAssay AID328 (DTP/NCI, 2004).
# Where “and” joins values, the source holds several entries; their conditions need not be identical. Identical values can stand only once. Toxic doses and inconclusive results are not listed.
# Tested on: BDF1 mice, P388 leukemia ip, median survival T/C
# Assay: NCI In Vivo Anticancer Drug Screen. Data for tumor model P388 Leukemia (intraperitoneal) in B6D2F1 (BDF1) mice
# Settings: endpoint: median survival time, higher = longer survival
# Experimental: The antitumor activity of compounds was measured in mice bearing transplantable tumors. Survival or tumor size were measured and the results are expressed as the measurement made in the treated group (T) divided by the measurement made in the vehicle treated control group (C). The tumor model used in this assay is P388 Leukemia (intraperitoneal) in B6D2F1 (BDF1) mice
# [1] = dose: 100.0 mg/kg/injection, schedule: Q04DX003 (ip), vehicle: saline
# [2] = dose: 200.0 mg/kg/injection, schedule: Q04DX003 (ip), vehicle: saline
structure (smiles),measurement,setting,value
O=C1N2CCOC2=NC1(c1ccccc1)c1ccccc1,T/C,"dose: 12.5 mg/kg/injection, schedule: Q01DX009 (ip), vehicle: water",94 % of control
same,T/C,"dose: 25.0 mg/kg/injection, schedule: Q01DX009 (ip), vehicle: water",100 % of control
same,T/C,"dose: 50.0 mg/kg/injection, schedule: Q01DX009 (ip), vehicle: water",94 % of control
same,T/C,"dose: 100.0 mg/kg/injection, schedule: Q01DX009 (ip), vehicle: water",94 % of control
O=C1C2CC=CCC2C(=O)N1SC(Cl)(Cl)Cl (configuration not stated),T/C,"dose: 6.25 mg/kg/injection, schedule: Q01DX009 (ip), vehicle: saline with Tween-80",120 % of control
same,T/C,"dose: 12.5 mg/kg/injection, schedule: Q01DX009 (ip), vehicle: saline with Tween-80",120 % of control
O=C(CC(c1ccccc1)c1c(O)c2ccccc2oc1=O)c1ccccc1 (configuration not stated),T/C,"dose: 0.39 mg/kg/injection, schedule: Q01DX009 (ip), vehicle: saline with Tween-80",108 % of control
same,T/C,"dose: 0.78 mg/kg/injection, schedule: Q01DX009 (ip), vehicle: saline with Tween-80",106 % of control
same,T/C,"dose: 1.56 mg/kg/injection, schedule: Q01DX009 (ip), vehicle: saline with Tween-80",97 % of control
same,T/C,"dose: 3.12 mg/kg/injection, schedule: Q01DX009 (ip), vehicle: saline with Tween-80",90 % of control
same,T/C,"dose: 12.5 mg/kg/injection, schedule: Q04DX003 (ip), vehicle: saline with Tween-80",120 % of control
same,T/C,"dose: 25.0 mg/kg/injection, schedule: Q04DX003 (ip), vehicle: saline with Tween-80",109 % of control
same,T/C,"dose: 50.0 mg/kg/injection, schedule: Q04DX003 (ip), vehicle: saline with Tween-80",92 % of control
same,T/C,"dose: 100.0 mg/kg/injection, schedule: Q04DX003 (ip), vehicle: saline with Tween-80",101 % of control
same,T/C,"dose: 200.0 mg/kg/injection, schedule: Q04DX003 (ip), vehicle: saline with Tween-80",108 % of control
CC1OC(O[C@@H]2C=C3CC[C@@H]4[C@H](CC[C@]5(C)[C@@H](c6ccc(=O)oc6)CC[C@]45O)[C@@]3(C)CC2)C(O)C(OC2OC(CO)C(O)C(O)C2O)C1O (some centres not stated),T/C,"dose: 0.8 mg/kg/injection, schedule: Q01DX010 (sc), vehicle: steriod suspending solution",100 % of control
same,T/C,"dose: 1.6 mg/kg/injection, schedule: Q01DX010 (sc), vehicle: steriod suspending solution",95 % of control
same,T/C,"dose: 2.0 mg/kg/injection, schedule: Q01DX010 (ip), vehicle: carboxymethylcellulose (CMC)",110 % of control
same,T/C,"dose: 3.25 mg/kg/injection, schedule: Q01DX010 (sc), vehicle: steriod suspending solution",110 % of control
same,T/C,"dose: 4.0 mg/kg/injection, schedule: Q01DX010 (ip), vehicle: carboxymethylcellulose (CMC)",100 % of control
same,T/C,"dose: 7.5 mg/kg/injection, schedule: Q01DX010 (sc), vehicle: steriod suspending solution",115 % of control
same,T/C,"dose: 8.0 mg/kg/injection, schedule: Q01DX010 (ip), vehicle: carboxymethylcellulose (CMC)",95 % of control
same,T/C,"dose: 15.0 mg/kg/injection, schedule: Q01DX010 (sc), vehicle: steriod suspending solution",105 % of control
same,T/C,"dose: 30.0 mg/kg/injection, schedule: Q01DX010 (sc), vehicle: steriod suspending solution",100 % of control
Nc1ccc2c(-c3cccc([N+](=O)[O-])c3)cc(=O)[nH]c2n1,T/C,[1],88 % of control
same,T/C,[2],87 % of control
same,T/C,"dose: 400.0 mg/kg/injection, schedule: Q04DX003 (ip), vehicle: saline",87 % of control
OCC1OC(n2cnc3cncnc32)C(O)C1O (configuration not stated),T/C,"dose: 0.78 mg/kg/injection, schedule: Q01DX009 (ip), vehicle: saline",97 % of control
same,T/C,"dose: 1.56 mg/kg/injection, schedule: Q01DX009 (ip), vehicle: saline",113 % of control and 115 % of control
same,T/C,"dose: 3.13 mg/kg/injection, schedule: Q04DX003 (ip), vehicle: saline",100 % of control
same,T/C,"dose: 6.25 mg/kg/injection, schedule: Q04DX003 (ip), vehicle: saline",116 % of control
same,T/C,"dose: 25.0 mg/kg/injection, schedule: Q01DX009 (ip), vehicle: saline",100 % of control
O=C(CSCSCC(=O)Nc1ccc(C2=NCCN2)cc1)Nc1ccc(C2=NCCN2)cc1,T/C,"dose: 10.0 mg/kg/injection, schedule: Q01DX009 (ip), vehicle: Klucel (hydroxypropylcellulose) (HPC)",91 % of control
same,T/C,"dose: 12.5 mg/kg/injection, schedule: Q04DX003 (ip), vehicle: saline",100 % of control
same,T/C,"dose: 25.0 mg/kg/injection, schedule: Q01DX009 (ip), vehicle: Klucel (hydroxypropylcellulose) (HPC)",100 % of control and 115 % of control
same,T/C,"dose: 50.0 mg/kg/injection, schedule: Q01DX009 (ip), vehicle: Klucel (hydroxypropylcellulose) (HPC)",165 % of control
same,T/C,"dose: 50.0 mg/kg/injection, schedule: Q04DX003 (ip), vehicle: saline",104 % of control and 109 % of control
same,T/C,"dose: 75.0 mg/kg/injection, schedule: Q04DX003 (ip), vehicle: saline",104 % of control
same,T/C,"dose: 100.0 mg/kg/injection, schedule: Q01DX009 (ip), vehicle: Klucel (hydroxypropylcellulose) (HPC)",90 % of control
same,T/C,[1],114 % of control
same,T/C,"dose: 135.0 mg/kg/injection, schedule: Q04DX003 (ip), vehicle: saline",157 % of control
same,T/C,[2],157 % of control
